Columns and labels:
[1] = system: imatinib- and sunitinib-resistant GISTs; conditions: phase II study; cited from earlier work
[2] = system: drug-resistant GIST; conditions: third-line treatment, cited from earlier work
[3] = biological target: GIST48 cells (KIT V560D + D820A) (Homo sapiens, UniProt P10721, D820A/V560D); conditions: doses as low as 100 nmol/L
[4] = system: imatinib- or imatinib/sunitinib-resistant GIST; conditions: sorafenib 400 mg twice daily, cited from earlier work
[5] = system: GIST patients; conditions: GIST patients treated with sorafenib; cited from earlier work
[6] = system: GIST after imatinib, sunitinib and nilotinib therapy; conditions: fourth-line, 400 mg twice daily, cited from earlier work
[7] = system: imatinib-resistant GIST; conditions: second-line setting; cited from earlier work

Sequence of GIST48 cells (KIT V560D + D820A) (P10721 26-976 V560D/D820A): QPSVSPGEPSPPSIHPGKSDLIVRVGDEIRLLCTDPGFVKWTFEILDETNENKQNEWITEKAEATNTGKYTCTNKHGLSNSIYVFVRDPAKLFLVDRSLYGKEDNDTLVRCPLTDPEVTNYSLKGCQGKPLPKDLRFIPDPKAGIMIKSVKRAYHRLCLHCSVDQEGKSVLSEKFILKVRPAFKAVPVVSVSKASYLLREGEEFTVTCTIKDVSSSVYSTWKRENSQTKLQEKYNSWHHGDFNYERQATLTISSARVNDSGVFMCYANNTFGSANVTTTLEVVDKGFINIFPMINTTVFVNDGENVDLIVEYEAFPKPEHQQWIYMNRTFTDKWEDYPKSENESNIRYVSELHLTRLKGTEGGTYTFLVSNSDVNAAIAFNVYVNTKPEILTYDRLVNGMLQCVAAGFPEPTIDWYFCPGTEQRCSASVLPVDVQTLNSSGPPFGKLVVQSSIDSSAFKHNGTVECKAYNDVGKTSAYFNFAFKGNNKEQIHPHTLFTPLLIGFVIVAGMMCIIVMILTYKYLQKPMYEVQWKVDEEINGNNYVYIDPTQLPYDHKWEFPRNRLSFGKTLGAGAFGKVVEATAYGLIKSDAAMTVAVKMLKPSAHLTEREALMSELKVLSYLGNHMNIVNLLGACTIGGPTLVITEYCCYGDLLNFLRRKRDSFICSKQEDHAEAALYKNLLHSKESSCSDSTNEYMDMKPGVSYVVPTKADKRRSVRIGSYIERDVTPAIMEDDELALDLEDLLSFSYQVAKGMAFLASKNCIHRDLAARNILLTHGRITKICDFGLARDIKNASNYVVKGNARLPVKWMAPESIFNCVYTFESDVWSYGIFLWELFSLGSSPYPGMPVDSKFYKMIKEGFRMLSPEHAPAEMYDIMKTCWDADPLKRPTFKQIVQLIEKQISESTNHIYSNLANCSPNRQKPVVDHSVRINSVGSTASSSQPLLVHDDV

## CNC(=O)c1cc(Oc2ccc(NC(=O)Nc3ccc(Cl)c(C(F)(F)F)c3)c(F)c2)ccn1 [Regorafenib]
[1]
  clinical benefit rate: 55%
  median PFS: 10 months

## CNC(=O)c1cc(Oc2ccc(NC(=O)Nc3ccc(Cl)c(C(F)(F)F)c3)cc2)ccn1 [Sorafenib]
[2]; median follow-up of 7.5 months
  median OS: had not been reached
[2]
  median PFS: 4.6 months
  overall disease control rate: 65%
[3]
  inhibition of KIT phosphorylation: 85%
[4]; 38 patients
  disease control rate: 68%
[4]
  hand-foot syndrome (grade 3-4 toxicity): 45%
  median OS: 11.6 months
  patients requiring at least one dose reduction: 63%
  rate of grade 3-4 toxicity: greater than 50%
[5]
  grade 3-4 anemia: 7%
  grade 3-4 elevated liver enzymes or bilirubin: 7%
  grade 3-4 fatigue: 5%
  grade 3-4 hand-foot skin reaction: 16%
  grade 3-4 hypertension: 5%
[6]; 32 patients
  overall tumor control rate: 63%
[6]
  median PFS: 4.6 months

## CCN(CC)CCNC(=O)c1c(C)[nH]c(/C=C2\C(=O)Nc3ccc(F)cc32)c1C [Sunitinib]
[7]
  disease control rate: 65%
  median OS: 17.2 months

— publication PMC3992122 (Molecular cancer therapeutics, 2012)
